In PMC9135230, “Extending the lore of curcumin as dipteran Butyrylcholine esterase (BChE) inhibitor: A holistic molecular interplay assessment” (PLoS ONE, 2022) one finds IC50 data, which are given here for two molecules.

Each structure is given as a SMILES string.

In assay [1] the test system is T1, Butyrylcholine esterase (BChE).
T1 construct: larval lysate (4th instar), native enzyme activity
The experiment in a line: Ellman assay in larval lysate; Michaelis-Menten and Lineweaver-Burk kinetics. In kind it is biochemical, Aedes aegypti. Background: In Ellman's method for cholinesterases, released thiocholine reacts with DTNB.

Assay [2] shares this test system. The experiment in a line: Ellman assay with S-butyrylthiocholine iodide in larval lysate. In kind it is biochemical, Aedes aegypti.

Take `COc1cc(/C=C/C(=O)CC(=O)/C=C/c2ccc(O)c(OC)c2)ccc1O` [curcumin]: in assay [1], 201 µM corresponded to half-maximal inhibition (IC50). As to `CCN(C)C(=O)Oc1cccc([C@H](C)N(C)C)c1` [rivastigmine], in assay [2], the IC50 – broadly, the point on the concentration scale where inhibition reaches its midpoint – worked out at 4.97 µM.
